{"source": "paper PMC3839116", "about": "(Bioorganic & medicinal chemistry, 2012)", "key": {"vcASADH [1]": {"target": "T1, vcASADH (Vibrio cholerae serotype O1, UniProt Q9KQG2)", "T1 sequence (Q9KQG2 1-370)": "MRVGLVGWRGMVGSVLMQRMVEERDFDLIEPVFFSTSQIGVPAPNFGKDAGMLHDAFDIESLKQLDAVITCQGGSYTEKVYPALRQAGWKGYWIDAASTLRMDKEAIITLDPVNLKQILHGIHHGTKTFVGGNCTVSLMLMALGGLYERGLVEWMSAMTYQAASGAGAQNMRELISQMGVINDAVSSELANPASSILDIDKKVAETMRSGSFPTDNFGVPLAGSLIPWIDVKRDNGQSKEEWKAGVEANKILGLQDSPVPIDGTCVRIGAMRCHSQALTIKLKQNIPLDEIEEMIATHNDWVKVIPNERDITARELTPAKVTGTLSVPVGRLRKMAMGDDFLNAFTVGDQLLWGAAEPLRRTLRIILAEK", "test": "ASADH enzyme kinetic assay"}, "spASADH": {"target": "T2, spASADH (Streptococcus pneumoniae, UniProt Q8DQ00)", "T2 sequence (Q8DQ00 1-358)": "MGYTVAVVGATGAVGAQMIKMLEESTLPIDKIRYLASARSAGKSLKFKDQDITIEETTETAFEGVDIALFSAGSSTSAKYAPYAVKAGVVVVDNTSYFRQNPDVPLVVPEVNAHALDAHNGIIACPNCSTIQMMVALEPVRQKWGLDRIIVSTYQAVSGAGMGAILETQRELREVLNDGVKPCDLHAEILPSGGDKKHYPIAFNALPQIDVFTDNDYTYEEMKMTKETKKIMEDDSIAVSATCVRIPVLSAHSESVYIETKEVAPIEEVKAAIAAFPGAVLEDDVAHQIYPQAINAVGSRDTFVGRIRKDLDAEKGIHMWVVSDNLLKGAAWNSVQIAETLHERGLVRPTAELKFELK", "test": "ASADH enzyme kinetic assay", "settings": "for ligand efficiency: enzyme form not stated; for fold increase in binding affinity: relative to M11, M9: enzyme form not stated, M14: spASADH"}, "vcASADH [2]": {"target": "T1, vcASADH", "test": "More thorough kinetic analysis, inhibitor varied against substrate ASA", "assay_type": "biochemical", "settings": "against the substrate ASA"}}, "data": [{"smiles": "O=C(O)c1ccc(C(=O)O)cc1", "note": "[1,4-benzenedicarboxylate, reference compound]", "values": [{"measurement": "affinity for vcASADH (in words)", "setting": "vcASADH [1]", "result": "no affinity"}, {"measurement": "affinity for spASADH (in words)", "setting": "spASADH", "result": "no affinity"}]}, {"smiles": "COC(=O)c1ccc([N+](=O)[O-])cn1", "note": "[Compound M6m, 5-Nitropyridine-2-methylcarboxylate]", "values": [{"measurement": "Ki", "setting": "vcASADH [1]", "result": "> 20", "unit": "mM"}]}, {"smiles": "COC(=O)c1ccc(C(=O)OC)nc1", "note": "[Compound M7m, Pyridine-2,5-dimethylcarboxylate]", "values": [{"measurement": "Ki", "setting": "vcASADH [1]", "result": "> 20", "unit": "mM"}]}, {"smiles": "O=C1NC(=O)c2cc([N+](=O)[O-])c(Cl)cc21", "note": "[Compound M9]", "values": [{"measurement": "ligand efficiency", "setting": "spASADH", "result": 0.35, "unit": "kcal/mol/heavy atom"}, {"measurement": "fold increase in binding affinity", "setting": "spASADH", "result": "~10", "unit": "fold"}, {"measurement": "inhibition type", "setting": "vcASADH [2]", "result": "competitive inhibitors"}]}, {"smiles": "CCN1C(=O)c2ccc([N+](=O)[O-])cc2C1=O", "note": "[Compound M11e, 4-Nitro-N-ethylphthalimide]", "values": [{"measurement": "Ki", "setting": "vcASADH [1]", "result": "> 4", "unit": "mM"}, {"measurement": "affinity for vcASADH (in words)", "setting": "vcASADH [1]", "result": "no affinity"}, {"measurement": "affinity for spASADH (in words)", "setting": "spASADH", "result": "no affinity"}]}, {"smiles": "O=c1[nH]c2ccc([N+](=O)[O-])cc2[nH]1", "note": "[Compound M14, 5-nitro-2-benzimidazolinone]", "values": [{"measurement": "fold increase in binding affinity", "setting": "spASADH", "result": "~10", "unit": "fold"}]}, {"smiles": "Cn1c(=O)n(C)c2cc([N+](=O)[O-])ccc21", "note": "[Compound M14m, 4-Nitro-N,N-dimethylbenzimidazolinone]", "values": [{"measurement": "Ki", "setting": "vcASADH [1]", "result": "0.13 ± 0.02", "unit": "mM"}, {"measurement": "inhibition type", "setting": "vcASADH [2]", "result": "competitive inhibitors"}]}, {"smiles": "O=C(O)c1cc(C(=O)O)cc(C(=O)Nc2ccc([N+](=O)[O-])cc2)c1", "note": "[Compound M17]", "values": [{"measurement": "ligand efficiency", "setting": "spASADH", "result": 0.22, "unit": "kcal/mol/heavy atom"}]}, {"smiles": "COC(=O)c1cc(C(=O)Nc2ccc([N+](=O)[O-])cc2)cc(C(=O)OC)c1", "note": "[Compound M17m, 5-[[(4-Nitrophenyl)amino]carbonyl]-1,3-benzenedimethylcarboxylate]", "values": [{"measurement": "Ki", "setting": "vcASADH [1]", "result": "> 20", "unit": "mM"}]}]}
